The target in this experiment is T1, recombinant human Syk (GST-hSyk fusion protein) (Homo sapiens, UniProt P43405).
T1 construct: purchased Carna Biosciences 08-176
The experiment in a line: Homogeneous Time-Resolved Fluorescence (HTRF) assay for the recombinant human Syk enzyme. It is filed as biochemical. Conditions: 10-dose titration, 25 μM ATP. The protocol:
Syk inhibition may be determined using the following assay protocol:
Homogeneous Time-Resolved Fluorescence (HTRF) Assay for the Recombinant Human Syk Enzyme:
A recombinant GST-hSyk fusion protein was used to measure potency of compounds to inhibit human Syk activity. The recombinant human GST-Syk (Carna Biosciences #08-176) (5 pM final concentration) was incubated with various concentrations of the inhibitor diluted in DMSO (0.1% final concentration) for 10 minutes at room temperature in 15 mM Tris-HCl (pH 7.5), 0.01% tween 20, 2 mM DTT in 384 well plate format. To initiate the reaction the biotinylated substrate peptide (250 nM final concentration) that contains the phosphorylation site for Syk was added with magnesium (5 mM final concentration) and ATP (25 μM final concentration). Final volume of the reaction was 10 μL. Phosphorylation of the peptide was allowed to proceed for 45 minutes at room temperature. To quench the reaction and detect the phosphorylated product, 2 nM of a Europium-anti-phosphotyrosine antibody (Perkin Elmer #AD0161) and 70 nM SA-APC (Perkin-Elmer #CR130-100) were added together in 15 mM Tris pH 7.5, 40 mM EDTA, 0.01% tween 20. Final volume of the quenching solution was 10 μL. The resulting HTRF signal was measured after 30 minutes on an EnVision (Perkin-Elmer) reader using a time-resolved fluorescence protocol. IC50 was determined following 10-dose titration (10 μM to 0.508 nM) and four parameter logistic curve fitting using the Merck Assay Data Analyzer. The rhSyk activity (IC50) is expressed as +++(100 nM or less), ++(between 100 and 1000 nM), +(between 1 and 10 μM).

[1] abbreviates: IC50 class, read-out: rhSYK Activity.

Like-named read-outs stand apart in the source and are kept apart here.

With “1-[4-(3-methyl-5-{[4-(trifluoro-ethyl)pyrimidin-2-yl]amino}-phenyl)-1H-pyrazol-1-yl]-3-morpholin-4-ylpropan-2-ol [Example 5.10]”, under setting [1], the IC50 was ≤ 100 nM.

As for “3-[4-(4-methyl-6-{[4-(trifluoromethyl)pyridin-2-yl]amino}pyrimidin-2-yl)-1H-pyrazol-1-yl]propanoic acid [Example 1.40]”, the IC50 under setting [1] was ≤ 100 nM.

As to “4-{1-[4-(4-methyl-6-{[4-(trifluoromethyl)pyridin-2-yl]amino}pyridin-2-yl)-1H-pyrazol-1-yl]ethyl}pyrrolidin-2-one [Example 1.32]”, the IC50 under setting [1] was ≤ 100 nM.

On to “4-{[4-(4-methyl-6-{[4-(trifluoromethyl)-pyridin-2-yl]amino}-pyridin-2-yl)-1H-pyrazol-1-yl]methyl}-pyrrolidin-2-one [Example 1.39]”, for which, under setting [1], the IC50 was ≤ 100 nM.

As to “4-{[4-(4-methyl-6-{[4-(trifluoromethyl)pyridin-2-yl]amino}pyridin-2-yl)-1H-pyrazol-1-yl]-methyl}pyrrolidin-2-one [Example 1.38]”, the IC50 under setting [1] is ≤ 100 nM.

Take “4-{[4-(6-{[4-(difluoromethyl)pyridin-2-yl]amino}-4-methylpyridin-2-yl)-1H-pyrazol-1-yl)methyl}pyrrolidin-2-one [Example 1.37]”: the IC50 under setting [1] was ≤ 100 nM.

With “4-{[4-(6-{[4-(difluoromethyl)pyridin-2-yl]amino}-4-methylpyridin-2-yl)-1H-pyrazol-1-yl]methyl}pyrrolidin-2-one [Example 1.35]”, the IC50 under setting [1] is ≤ 100 nM.

Turning to “5-{[4-(3-{[4-(1,1-difluoromethyl)pyrimidin-2-yl]amino}-5-methylphenyl)-1H-pyrazol-1-yl]methyl}-4-methyl-1,3-oxazolidin-2-one [Example 23.11]”, the IC50 under setting [1] was ≤ 100 nM.

Consider “6-methyl-2-(1H-pyrazol-4-yl)-N-[4-(trifluoro-methyl)pyridin-2-yl]pyrimidin-4-amine [Example 1.41]”, for which the IC50 under setting [1] was ≤ 100 nM.

In the case of “6-methyl-2-pyrazolo-[1,5-a]pyridin-3-yl-N-[4-(trifluoromethyl)-pyridin-2-yl]pyrimidin-4-amine [Example 1.42]”, the IC50 under setting [1] was ≤ 100 nM.

Regarding `Cc1cc(Nc2nccc(C(F)(F)F)n2)cc(-c2cnn(CC(O)C(F)(F)F)c2)c1` (racemic) [Example 3.43, 1,1,1-trifluoro-3-[4-(3-methyl-5-{[4-(trifluoromethyl)pyrimidin-2-yl]amino}phenyl)-1H-pyrazol-1-yl]propan-2-ol], under setting [1], the IC50 was ≤ 100 nM.

With `Cc1cc(Nc2nccc(C(F)(F)F)n2)cc(-c2cnn(CC(O)c3ccccc3)c2)c1` (racemic) [Example 5.1, 2-(4-(3-methyl-5-((4-(trifluoromethyl)pyrimidin-2-yl)amino)phenyl)-1H-pyrazol-1-yl)-1-phenylethanol], the IC50 runs as follows: (read-out: rhSYK IC50) 58.5 nM; under setting [1], ≤ 100 nM.

Regarding `COC(=O)C(C)(O)Cn1cc(-c2cc(C)cc(Nc3nccc(C(F)(F)F)n3)c2)cn1` (racemic) [Example 5.4, methyl 2-hydroxy-2-methyl-3-[4-(3-methyl-5-{[4-(trifluoro-methyl)pyrimidin-2-yl]amino}phenyl)-1H-pyrazol-1-yl]propanoate], the IC50 under setting [1] is ≤ 100 nM.

As to `Cc1cc(Nc2nccc(C(F)(F)F)n2)cc(-c2cnn(CC(C)(O)C(=O)O)c2)c1` (racemic) [Example 5.6, 2-hydroxy-2-methyl-3-[4-(3-methyl-5-{[4-(trifluoro-methyl)pyrimidin-2-yl]amino}-phenyl)-1H-pyrazol-1-yl]propanoic acid], the IC50 under setting [1] is ≤ 100 nM.

Consider `CCC(O)Cn1cc(-c2cc(C)cc(Nc3nccc(C(F)(F)F)n3)c2)cn1` (racemic) [Example 5.9, 1-[4-(3-methyl-5-{[4-(trifluoro-methyl)pyrimidin-2-yl]amino}-phenyl)-1H-pyrazol-1-yl]butan-2-ol], for which, under setting [1], the IC50 was ≤ 100 nM.

As to `Cc1cc(-c2cnn(CC(O)CF)c2)cc(N(CC(O)CF)c2nccc(C(F)(F)F)n2)c1` (racemic) [Example 5.13, 1-fluoro-3-({3-[1-(3-fluoro-2-hydroxy-propyl)-1H-pyrazol-4-yl]-5-methyl-phenyl}-[4-(trifluoromethyl)-pyrimidin-2-yl]-amino)propan-2-ol], the IC50 under setting [1] is 100 to 1000 nM.

`Cc1cc(Nc2nccc(C(F)(F)F)n2)cc(-c2cnn(CC(O)C(=O)O)c2)c1` (racemic) [Example 5.14, 2-hydroxy-3-[4-(3-methyl-5-{[4-(trifluoro-methyl)pyrimidin-2-yl]amino}-phenyl)-1H-pyrazol-1-yl]propanoic acid]: the IC50 under setting [1] is ≤ 100 nM.

On to `Cc1cc(Nc2nccc(C(F)(F)F)n2)cc(-c2cnn(CC(O)CO)c2)c1` (racemic) [Example 5.15, 3-[4-(3-methyl-5-{[4-(trifluoromethyl)-pyrimidin-2-yl]amino}-phenyl)-1H-pyrazol-1-yl]propane-1,2-diol], for which, under setting [1], the IC50 was ≤ 100 nM.

For the molecule `Cc1cc(Nc2nccc(C(F)(F)F)n2)cc(-c2cnn(C(C)C(N)=O)c2)c1` (racemic) [Example 8.8, 2-[4-(3-methyl-5-{[4-(trifluoromethyl)-pyrimidin-2-yl]amino}phenyl)-1H-pyrazol-1-yl]propanamide], under setting [1], the IC50 is ≤ 100 nM.

For the molecule `Cc1cc(Nc2nccc(C(F)(F)F)n2)cc(-c2cnn(CC(C)(O)C(N)=O)c2)c1` (racemic) [Example 8.11, 2-hydroxy-2-methyl-3-[4-(3-methyl-5-{[4-(trifluorometh-yl)pyrimidin-2-yl]amino}-phenyl)-1H-pyrazol-1-yl]propanamide], under setting [1], the IC50 is ≤ 100 nM.

In the case of `Cc1cc(Nc2ncc(F)c(C(F)F)n2)cc(-c2cnn([C@H]3CCC[C@H](O)[C@@H]3O)c2)c1` (relative stereo) [Example 10.12, 3-[4-(3-{[4-(difluoromethyl)-5-fluoro-pyrimidin-2-yl]amino}-5-methylphenyl)-1H-pyrazol-1-yl]cyclohexane-1,2-diol], the IC50 is 4.7 nM (read-out: rhSYK IC50) and ≤ 100 nM under setting [1].

Regarding `Cc1cc(Nc2nccc(C(F)(F)F)n2)cc(-c2cnn(C3CCNC(=O)CC3)c2)c1` (single isomer, unassigned) [14 (isomer 1)], the IC50 under setting [1] is ≤ 100 nM.

`Cc1cc(Nc2nccc(C(F)(F)F)n2)cc(-c2cnn(C3CCNC(=O)CC3)c2)c1` (single isomer, unassigned) [14.1 (enantiomer 1)]: the IC50 (read-out: rhSYK IC50) was determined as 28 nM.

For the molecule `Cc1cc(Nc2nccc(C(F)(F)F)n2)cc(-c2cnn(C3CCNC(=O)CC3)c2)c1` (single isomer, unassigned) [14.1 (enantiomer 2)], the IC50 (read-out: rhSYK IC50) is 10.1 nM.

On to `Cc1cc(Nc2nccc(C(F)(F)F)n2)cc(-c2cnn(CC3CNC(=O)O3)c2)c1` (single isomer, unassigned) [Example 2.4, 5-{[4-(3-methyl-5-{[4-(trifluoromethyl)-pyrimidin-2-yl]-amino}phenyl)-1H-pyrazol-1-yl]methyl}-1,3-oxazolidin-2-one], for which, under setting [1], the IC50 was ≤ 100 nM.

On to `Cc1cc(Nc2nccc(C(F)(F)F)n2)cc(-c2cnn(CC3CN(C)C(=O)O3)c2)c1` (single isomer, unassigned) [Example 3.1, 3-methyl-5-{[4-(3-methyl-5-{[4-(trifluoromethyl)pyrimidin-2-yl]amino}phenyl)-1H-pyrazol-1-yl]methyl}-1,3-oxazolidin-2-one], for which the IC50 is, setting by setting: (read-out: rhSYK IC50) 31.2 nM; under setting [1], ≤ 100 nM.

On to `Cc1cc(Nc2nccc(C(F)(F)F)n2)cc(-c2cnn(CC(O)C(F)(F)F)c2)c1` (single isomer, unassigned) [Example 3.44, 1,1,1-trifluoro-3-[4-(3-methyl-5-{[4-(trifluoromethyl)pyrimidin-2-yl]amino}phenyl)-1H-pyrazol-1-yl]propan-2-ol], for which, under setting [1], the IC50 was ≤ 100 nM.

As to `Cc1cc(Nc2nccc(C(F)(F)F)n2)cc(-c2cnn(CC(O)C(F)(F)F)c2)c1` (single isomer, unassigned) [Example 3.45, 1,1,1-trifluoro-3-[4-(3-methyl-5-{[4-(trifluoromethyl)pyrimidin-2-yl]amino}phenyl)-1H-pyrazol-1-yl]propan-2-ol], the IC50 under setting [1] is ≤ 100 nM.

Take `Cc1cc(Nc2nccc(C(F)(F)F)n2)cc(-c2cnn(CC(O)C(N)=O)c2)c1` (single isomer, unassigned) [Example 7.1, (R or S)-2-hydroxy-3-[4-(3-methyl-5-{[4-(trifluoromethyl)pyrimidin-2-yl]amino}phenyl)-1H-pyrazol-1-yl]propanamide]: the IC50 reads like this: (read-out: rhSYK IC50) 1.1 nM; under setting [1], ≤ 100 nM.

`Cc1cc(Nc2nccc(C(F)(F)F)n2)cc(-c2cnn(CC(C)(O)C(N)=O)c2)c1` (single isomer, unassigned) [Example 8.1, (R or S) 2-hydroxy-2-methyl-3-[4-(3-methyl-5-{[4-(trifluoromethyl)pyrimidin-2-yl]amino}phenyl)-1H-pyrazol-1-yl]propanamide]: the IC50 (read-out: rhSYK IC50) is 1 nM and the IC50 under setting [1] is ≤ 100 nM.
